The results in this text go back to patent US4722931A, “Calcium antagonist” (Laboratorios Delagrange, priority 1984, dated 1988).

Counter-ions that a name gives are not always drawn. Like-named read-outs stand apart in the source and are kept apart here. Where only a bound is given, the exact number is not on record here.

Experiment [1] concerns KCl depolarized rat aorta. In words: Inhibitory effects on rat aorta contractions induced by KCl (in vitro). The experiment is classed as cell-based, Wistar rats. Particulars: for activity relative to compound 7 (IC 50): same test, compared with compound 7. The source says:
Inhibitory effects on rat aorta contractions induced by KCl: […]

Experiment [2] concerns SHR rats. In words: Antihypertensive efficacy in SHR rats (systolic blood pressure, tail cuff). It is filed as in vivo, spontaneously hypertensive rats (SHR). The conditions noted are these: for maximum decrease of blood pressure, mm Hg / inhibition in vivo at 8 mg/kg: n = 5; for inhibition in vivo at 8 mg/kg: Rattus norvegicus, po, Table 2, read-out: maximum decrease of blood pressure, %; for in vivo antihypertensive activity, in words: p.os. As for the experimental part:
The systolic blood pressure was measured on the tail of conscious, spontaneously hypertensive rats (SHR), by means of an inflatable rubber cuff and a Digital Pressure meter LE 5000 (Letica Instruments, Barcelone, Spain). Measurements were carried out before administration of the substance, as well as 30 minutes, 1 h, 2, 6, and 24 hours afterwards, respectively. The animals were kept in pre-warmed plastic cylinders during the measurements. The rats with a blood pressure lesser than 160 mm. Hg were discarded. Each compound was tested in 5 animals. Compounds of this invention, or nitrendipine which was used as positive control were given orally in the form of suspensions in 5% acacia gum.

[3] abbreviates: KCl 80 mM depolarized rat aorta, Table 1, read-out: IC × 10^-8.
Setting [4] is: rat aorta contractions induced by KCl 80 mM.
The mark [5] stands for this setting: rat aorta contractions induced by KCl 80 mM, read-out: IC 50.

`CCOC(=O)C1=C(C)NC(C)=C(C(=O)OC)C1c1cccc2c1OCO2` (stereo not drawn) [Compound 7, 1,4-dihydro-2,6-dimethyl-4-(2',3'-methylenedioxyphenyl)-3,5-pyridinedicarboxylic acid, ethyl methyl ester]: the IC50 in experiment [1] (setting [3]) is 3.1 nM; in experiment [1] (setting [5]) it was 3.5 nM. The “in vitro activity, in words” value in experiment [1] (setting [4]) is listed as “the most active within the series of methyl ethyl ester derivatives”; in experiment [1] (rat aorta contractions induced by KCl 80 mM, listed as IQB-837 V) it was “very active”. Besides, the “decreasing blood pressure by” value in experiment [2] (8 mg./kg. p.os, SHR rats) came to 30%. Moreover, the “maximum decrease of blood pressure, mm Hg” value (from here on “maximum decrease”) in experiment [2] (8 mg./kg. p.os) was determined as 65 mm Hg. Also, the inhibition in vivo at 8 mg/kg in experiment [2] (8 mg./kg. p.os) came out at 33%. Further, the “in vivo antihypertensive activity, in words” value in experiment [2] (SHR rats) is reported as “as active as nitrendipine”; in experiment [2] (SHR rats, listed as IQB-837 V), “very active”.

Take `COC(=O)C1=C(C)NC(C)=C(C(=O)OC)C1c1cccc2c1OCO2` [Compound 9, 1,4-dihydro-2,6-dimethyl-4-(2',3'-methylenedioxyphenyl)-3,5-pyridinedicarboxylic acid, dimethyl ester]: in experiment [1] (setting [3]), the IC50 was 83 nM.

In the case of `COCCOC(=O)C1=C(C)NC(C)=C(C(=O)OC(C)C)C1c1cccc2c1OCO2` (stereo not drawn) [Compound 11, 1,4-dihydro-2,6-dimethyl-4-(2',3'-methylenedioxyphenyl)-3,5-pyridinedicarboxylic acid, isopropyl methoxyethyl ester], the IC50 in experiment [1] (setting [3]) was 91 nM.

Turning to `CC1=C(C(=O)OC(C)C)C(c2cccc3c2OCO3)C(C(=O)OC(C)C)=C(C)N1` [Compound 12, 1,4-dihydro-2,6-dimethyl-4-(2',3'-methylenedioxyphenyl)-3,5-pyridinedicarboxylic acid, diisopropyl ester], the IC50 in experiment [1] (setting [3]) was over 100 nM.

`CCOC(=O)C1=C(C)NC(C)=C(C(=O)OC)C1c1cc(OC)cc(OC)c1` (stereo not drawn) [Compound 5, 1,4-dihydro-2,6-dimethyl-4-(3',5'-dimethoxyphenyl)-3,5-pyridinedicarboxylic acid, ethyl methyl ester]: in experiment [1] (setting [3]), the IC50 stood at 92 nM.

In the case of `CCOC(=O)C1=C(C)NC(C)=C(C(=O)OC(C)C)C1c1cccc2c1OCO2` (stereo not drawn) [Compound 15, 1,4-dihydro-2,6-dimethyl-4-(2',3'-methylenedioxyphenyl)-3,5-pyridinedicarboxylic acid, ethyl isopropyl ester], the IC50 in experiment [1] (setting [3]) and in experiment [1] (setting [5]) was 2.1 nM in each case. Further, the “activity relative to compound 7 (IC 50)” value in experiment [1] was “as active as compound 7”. Also, the “maximum decrease” value in experiment [2] (8 mg./kg. p.os) is reported as 62 mm Hg. Besides, in experiment [2] (8 mg./kg. p.os), the inhibition in vivo at 8 mg/kg came out at 32.4%. In addition, the “in vivo antihypertensive activity, in words” value in experiment [2] (SHR rats) is reported as “also active in vivo”.

In the case of `CCOC(=O)C1=C(C)NC(C)=C(C(=O)OC)C1c1cccc2c1OCCO2` (stereo not drawn) [Compound 8, 1,4-dihydro-2,6-dimethyl-4-(2',3'-ethylenedioxyphenyl)-3,5-pyridinedicarboxylic acid, methyl ethyl ester], in experiment [1] (setting [3]), the IC50 was 45 nM. For the same compound, the “in vitro activity, in words” value in experiment [1] (setting [4]) is reported as “rather active in vitro”; in experiment [1] (rat aorta contractions induced by KCl 80 mM, listed as IQB-838 V), “very active”. Moreover, the “maximum decrease” value in experiment [2] (8 mg./kg. p.os) is reported as 12 mm Hg. For the same compound, the inhibition in vivo at 8 mg/kg in experiment [2] (8 mg./kg. p.os) came out at 7.2%. Besides, the “in vivo antihypertensive activity, in words” value in experiment [2] (SHR rats) was “a little antihypertensive effect”; in experiment [2] (SHR rats, listed as IQB-838 V), “very active”.

As for `CCOC(=O)C1=C(C)NC(C)=C(C(=O)OC)C1c1ccccc1OCOC` (stereo not drawn) [Compound 6, 1,4-dihydro-2,6-dimethyl-4-(2'-methoxymethoxy-phenyl)-3,5-pyridinedicarboxylic acid, ethyl methyl ester], the IC50 in experiment [1] (setting [3]) was found to be 12 nM. Also, in experiment [2] (8 mg./kg. p.os), the “maximum decrease” value amounted to 34 mm Hg and the inhibition in vivo at 8 mg/kg stood at 15.2%. Also, in experiment [2] (SHR rats), the “in vivo antihypertensive activity, in words” value was “also active in vivo”.

As for `CCOC(=O)C1=C(C)NC(C)=C(C(=O)OC)C1c1cc(OC)c(O)c(OC)c1` (stereo not drawn) [Compound 3, 1,4-dihydro-2,6-dimethyl-4-(3',5'-dimethoxy-4'-hydroxyphenyl)-3,5-pyridinedicarboxylic acid, methyl ethyl ester], in experiment [1] (setting [3]), the IC50 was over 100 nM. The “in vitro activity, in words” value in experiment [1] (setting [4]) is “little or no activity”.

On to `COC(=O)C1=C(C)NC(C)=C(C(=O)OCC(C)C)C1c1cccc2c1OCO2` (stereo not drawn) [Compound 10, 1,4-dihydro-2,6-dimethyl-4-(2',3'-methylenedioxyphenyl)-3,5-pyridinedicarboxylic acid, methyl isobutyl ester], for which the IC50 in experiment [1] (setting [3]) is 12 nM. In experiment [2] (8 mg./kg. p.os), the “maximum decrease” value is 48 mm Hg and the inhibition in vivo at 8 mg/kg stood at 23.5%. For the same compound, in experiment [2] (SHR rats), the “in vivo antihypertensive activity, in words” value is “also active in vivo”.

As to `COCCOC(=O)C1=C(C)NC(C)=C(C(=O)OCCOC)C1c1cccc2c1OCO2` [Compound 16, 1,4-dihydro-2,6-dimethyl-4-(2',3'-methylenedioxyphenyl)-3,5-pyridinedicarboxylic acid, dimethoxyethyl ester], the IC50 in experiment [1] (setting [3]) was over 100 nM.

As to `CCOC(=O)C1=C(C)NC(C)=C(C(=O)OC)C1c1ccc(OC)c(OC)c1` (stereo not drawn) [Compound 2, 1,4-dihydro-2,6-dimethyl-4-(3',4'-dimethoxyphenyl)-3,5-pyridinedicarboxylic acid, methyl ethyl ester], the IC50 in experiment [1] (setting [3]) was over 100 nM. Also, the “in vitro activity, in words” value in experiment [1] (setting [4]) is “little or no activity”.

Take `CCOC(=O)C1=C(C)NC(C)=C(C(=O)OCC)C1c1cccc2c1OCO2` [Compound 14, 1,4-dihydro-2,6-dimethyl-4-(2',3'-methylenedioxyphenyl)-3,5-pyridinedicarboxylic acid, diethyl ester]: the IC50 in experiment [1] (setting [3]) was over 100 nM.

As for `CCOC(=O)C1=C(C)NC(C)=C(C(=O)OC)C1c1cc(OC)c(OC)c(OC)c1` (stereo not drawn) [Compound 1, 1,4-dihydro-2,6-dimethyl-4-(3',4',5'-trimethoxyphenyl)-3,5-pyridinedicarboxylic acid, methyl ethyl ester], in experiment [1] (setting [3]), the IC50 is over 100 nM. Further, the “in vitro activity, in words” value in experiment [1] (setting [4]) was “little or no activity”. Besides, in experiment [2] (8 mg./kg. p.os), the “maximum decrease” value was 9.8 mm Hg and the inhibition in vivo at 8 mg/kg was found to be 5%.

In the case of `COC(=O)C1=C(C)NC(C)=C(C(=O)OC)C1c1ccccc1[N+](=O)[O-]` [Nifedipine, nifedipine, reference compound], the figures for the IC50 in experiment [1] (setting [3]) and in experiment [1] (setting [5]) were 7.1 nM and 7.5 nM, respectively. In addition, the “activity relative to compound 7 (IC 50)” value in experiment [1] is given as “about two times less active than compound 7”.

Consider `CCOC(=O)C1=C(C)NC(C)=C(C(=O)OC)C1c1cccc([N+](=O)[O-])c1` (stereo not drawn) [nitrendipine, reference compound], for which, in experiment [2] (8 mg./kg. p.os), the “maximum decrease” value came out at 54 mm Hg and the inhibition in vivo at 8 mg/kg was determined as 26.3%.

On to `CCOC(=O)C1=C(C)NC(C)=C(C(=O)OC)C1c1cccc(OC)c1OC` (stereo not drawn) [Compound 4, 1,4-dihydro-2,6-dimethyl-4-(2',3'-dimethoxyphenyl)-3,5-pyridinedicarboxylic acid, ethyl methyl ester], for which the IC50 in experiment [1] (setting [3]) was over 100 nM.

For the compound `COC(=O)C1=C(C)NC(C)=C(C(=O)OCc2ccccn2)C1c1cccc2c1OCO2` (stereo not drawn) [Compound 17, 1,4-dihydro-2,6-dimethyl-4-(2',3'-methylenedioxyphenyl)-3,5-pyridinedicarboxylic acid, methyl, 2-pyridylmethyl ester, hydrochloride], in experiment [1] (setting [3]), the IC50 is over 100 nM.

Turning to `COC(=O)C1=C(C)NC(C)=C(C(=O)OC(C)C)C1c1cccc2c1OCO2` (stereo not drawn) [Compound 13, 1,4-dihydro-2,6-dimethyl-4-(2',3'-methylenedioxyphenyl)-3,5-pyridinedicarboxylic acid, methyl isopropyl ester], the IC50 in experiment [1] (setting [3]) stood at 34 nM. Besides, in experiment [2] (8 mg./kg. p.os), the “maximum decrease” value is 10 mm Hg and the inhibition in vivo at 8 mg/kg came to 5.2%.
